Some test systems named below: HCT-15 colon; MCF7 breast; MOLT-4 leukemia; OVCAR-8 ovarian; RXF 393 renal; SF-295 CNS; SK-MEL-28 melanoma; SNB-75 CNS; UACC-257 melanoma; UACC-62 melanoma.
Common to all, as to assay: NCI anticancer screen, dose series, 48 h

The structures appear in SMILES notation. Values joined by “and” are separate entries in the source; they are usually repeats but may differ in a detail not shown here. Identical values can stand only once.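 A five-concentration, 48-hour dose response in 96-well plates underlies each endpoint, interpolated linearly between surrounding concentrations. Here, GI50 denotes the concentration required for 50% inhibition of growth. TGI: total growth inhibition.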

Take `COc1ccc(/C(C#N)=C/c2ccc(OC)c(OC)c2)cc1`: the TGI with HCT-15 colon, in the test on MCF7 breast, in the test with MOLT-4 leukemia, with OVCAR-8 ovarian, in the test with RXF 393 renal and in the test on SF-295 CNS was above 100 µM in each case. The TGI in the test on SK-MEL-28 melanoma, in the test on SNB-75 CNS, in the test on UACC-257 melanoma and with UACC-62 melanoma was above 100 µM each time.
As to `O=C(/C=C/c1cc([N+](=O)[O-])ccc1Cl)c1ccccc1`, the GI50 in the test on HCT-15 colon is 8 µM; in the test with MCF7 breast, 2.76 µM; in the test on MOLT-4 leukemia it was 21.1 µM; with OVCAR-8 ovarian, 12.2 µM; in the test with RXF 393 renal, 14.7 µM; with SF-295 CNS, 15.6 µM. The GI50 in the test with SK-MEL-28 melanoma is 14.3 µM; in the test on SNB-75 CNS it was 21.7 µM; with UACC-257 melanoma it was 16.2 µM; with UACC-62 melanoma, 13.8 µM. Moreover, the TGI was 88.2 µM in the test with HCT-15 colon; 17.4 µM in the test on MCF7 breast; above 100 µM in the test on MOLT-4 leukemia; 33.5 µM with OVCAR-8 ovarian; 28.1 µM with RXF 393 renal; 49.6 µM with SF-295 CNS. Moreover, the TGI in the test with SK-MEL-28 melanoma amounted to 29 µM; with SNB-75 CNS, 99.6 µM; in the test with UACC-257 melanoma it was 33.6 µM; with UACC-62 melanoma it was 32.3 µM.
For `O=C(NCc1ccc(Cn2c(=O)sn(-c3ccccc3)c2=O)cc1)OCc1ccc2c(Br)cc(Br)c(O)c2n1`, the GI50 is 0.222 µM in the test on HCT-15 colon; 0.399 µM with MCF7 breast; 0.503 µM in the test on MOLT-4 leukemia; 0.762 µM in the test on OVCAR-8 ovarian; 0.546 µM in the test with RXF 393 renal; 1.6 µM in the test on SF-295 CNS. Also, the GI50 is 1.17 µM in the test on SK-MEL-28 melanoma, 0.606 µM with SNB-75 CNS, 1.26 µM with UACC-257 melanoma and 1.03 µM in the test on UACC-62 melanoma. Also, the TGI in the test with HCT-15 colon was 0.572 µM; in the test with MCF7 breast, 1.96 µM; in the test on MOLT-4 leukemia it was above 22.3 µM; in the test on OVCAR-8 ovarian, 2.44 µM; with RXF 393 renal, 1.83 µM; in the test on SF-295 CNS it was 3.06 µM. Further, the TGI in the test on SK-MEL-28 melanoma worked out at 2.4 µM; in the test with SNB-75 CNS, 1.97 µM; with UACC-257 melanoma, 2.74 µM; in the test with UACC-62 melanoma, 2.24 µM.
For the molecule `Oc1[nH]c2ccc(Cl)cc2c1/C=c1/ccc2c(c1)N=C(c1ccc(F)cc1)N=2`, the GI50 in the test on HCT-15 colon is 2.04 µM; in the test on MCF7 breast it was 1.33 µM; in the test on MOLT-4 leukemia, 2.52 µM; in the test on OVCAR-8 ovarian, 1.96 µM; in the test with RXF 393 renal it was 1.89 µM; with SF-295 CNS, 7.02 µM. Moreover, the GI50 in the test on SK-MEL-28 melanoma is 1.78 µM; in the test with SNB-75 CNS it was 1.5 µM; in the test on UACC-257 melanoma it was 1.89 µM; in the test on UACC-62 melanoma, 2.5 µM. Moreover, the TGI with HCT-15 colon came out at 4.47 µM; in the test on MCF7 breast, 2.83 µM; with MOLT-4 leukemia, 7.1 µM; with OVCAR-8 ovarian it was 4.26 µM; with RXF 393 renal, 3.72 µM; with SF-295 CNS it was 30.6 µM. The TGI in the test with SK-MEL-28 melanoma was found to be 3.48 µM; in the test with SNB-75 CNS, 3.78 µM; in the test on UACC-257 melanoma it was 4.35 µM; in the test on UACC-62 melanoma it was 8.06 µM.
Turning to `NC(=O)c1ccc2nc(-c3ccc(Oc4ccc(Cl)cc4)cc3)[nH]c2c1`, the GI50 was 23.6 µM and 12.6 µM in the test with HCT-15 colon; 33.1 µM and 6.4 µM in the test with MCF7 breast; 28.6 µM and 11.5 µM in the test on MOLT-4 leukemia; 58 µM and 12.9 µM in the test with OVCAR-8 ovarian; 48.9 µM and 14.9 µM with RXF 393 renal; above 75 µM in the test with SF-295 CNS. Moreover, the GI50 was 40.4 µM and 15.6 µM in the test on SK-MEL-28 melanoma; 37 µM and 18.3 µM in the test with SNB-75 CNS; 66.7 µM and 18.4 µM in the test on UACC-257 melanoma; 75 µM and 16.4 µM in the test on UACC-62 melanoma. The TGI in the test with HCT-15 colon is 75 µM and 31 µM; in the test on MCF7 breast, 75 µM and 23.9 µM; in the test with MOLT-4 leukemia, 75 µM and 33.3 µM; in the test on OVCAR-8 ovarian it was 75 µM and 34.4 µM; in the test with RXF 393 renal it was 75 µM and 30.2 µM; with SF-295 CNS, above 75 µM. For the same molecule, the TGI with SK-MEL-28 melanoma is 75 µM and 29 µM; in the test on SNB-75 CNS, 75 µM and 38.5 µM; in the test with UACC-257 melanoma it was 75 µM and 33.5 µM; in the test on UACC-62 melanoma it was 75 µM and 30.7 µM.

The values above are taken from PubChem BioAssay (NCI).
